Measurements published in patent US20260007634A1, “PHARMACEUTICAL COMPOSITIONS FOR THE TREATMENT OF ALLERGIC DISEASES” (KINKI UNIVERSITY, priority 2022, published 2026).

How the values were obtained:
NIK = target: T1, NIK (Mus musculus, UniProt Q9WUL6); assay: BAFF-induced NIK activation in B cells (Western blotting, phospho-NIK); format: cell-based; details: for phospho-NIK band (immunoblotting): 100 ng/mL BAFF 1 h after 23 h compound, 100 μM mangiferin, 20 μM 1,3,5,6-tetrahydroxyxanthone, 10 μM others; for inhibition of NIK activity compared with mangiferin: general statement in the description, referring to the examples
T1 construct: Proteins were extracted with cell lysate and used as samples; endogenous in cells; host or cells: primary splenic B cells from 6-week-old male Balb/c mice
Procedure: (§1) Spleens were harvested from 6-week-old male Balb/c mice and B cells were isolated. After isolation, the cells were seeded in […] dish and cultured in RPMI 1640 medium for 1 day and used as control. In addition, B cells were seeded into 100 mm^2 dish, and after 1 day of culture, 100 ng/mL BAFF was added and cultured for 1 h. Furthermore, B cells were seeded in […] dish, and after 1 day of culture, 100 μM mangiferin, 10 μM mangiferin 8a, 10 μM norathyriol, 20 μM 1,3,5,6-tetrahydroxyxanthone, 10 μM xanthohydrol, 10 μM of α-mangostin, and 10 μM of γ-mangostin were added to B cells, and after 23 h, 100 ng/mL BAFF was added to each, and the cells were incubated for 1 h. All were incubated at 37° C. and 5% CO2.
(§2) Proteins were extracted with cell lysate and used as samples. Each sample was transferred to a PVDF membrane after SDSPAGE and assayed with anti-phospho-NIK, anti-NIK, anti-NF-κB p52, anti-NF-κB p65 and anti-Lamin antibodies.
(§3) The antibody species is indicated in the vertical direction. Specifically, in the case of anti-phospho-NIK antibody (described as “Phospho-NIK”), anti-NIK antibody (described as “NIK”), anti-NF-κB p52 antibody (described as “NF-κB p52 nuclear”), anti-NF-κB p65 antibody (described as “NF-κB p65 nuclear”) and anti-Lamin antibody (described as “Lamin”).

[1] = tested on: B cells collected from mice; assay: BAFF-induced differentiation into mature B cells (IgM/IgD flow cytometry); format: cell-based, mouse; details: 100 ng/mL BAFF, 10 days, 100 μM mangiferin, 20 μM 1,3,5,6-tetrahydroxyxanthone, 10 μM others; for population IgM positive and IgD positive (mature B cells): control 0, BAFF only 45.6; for population IgM positive and IgD negative (immature B cells): control 0.529, BAFF only 42.3; for population IgM negative and IgD negative (pre-B cells): control 99.5, BAFF only 11.7
Procedure: B cells collected from mice were cultured in RPMI 1640 medium for 1 day. Then, 100 μM mangiferin, 10 μM mangiferin 8a, 10 μM norathyriol, 20 μM 1,3,5,6-tetrahydroxyxanthone, 10 μM xanthohydrol, 10 μM α-mangostin, 10 μM of γ-mangostin were added to B cell, and after 1 day of culture, 100 ng/mL of BAFF was added, followed by 10 days of culture. After 10 days of culture, cells were stained with anti-IgM and anti-IgD antibodies, markers of B cells, and the expression of IgM and IgD was measured using BD LSRFortessa. Note that IgM negative and IgD negative indicates pre-B cells, IgM positive and IgD negative indicates immature B cells, and IgM positive and IgD positive indicates mature B cells.

NF-κB p52 = assay: BAFF-stimulated B cells, nuclear NF-κB p52 (Western blotting); format: cell-based, mouse; details: vs 100 ng/mL BAFF; 100 μM mangiferin, 20 μM 1,3,5,6-tetrahydroxyxanthone, 10 μM others
Procedure: as §1, §2, §3

[2] = tested on: B cells collected from mice; assay: BAFF-induced differentiation into plasma cells (CD138 flow cytometry); format: cell-based, mouse; details: 100 ng/mL BAFF, 10 days; 100 μM mangiferin, 20 μM 1,3,5,6-tetrahydroxyxanthone, 10 μM others; vs BAFF-added group
Procedure: B cells collected from mice were cultured in RPMI 1640 medium for 1 day. Then, 100 μM mangiferin, 10 μM mangiferin 8a, 10 μM norathyriol, 20 μM 1,3,5,6-tetrahydroxyxanthone, 10 μM xanthohydrol, 10 μM α-mangostin, 10 μM of γ-mangostin were added to B cell, and after 1 day of culture, 100 ng/mL of BAFF was added, followed by 10 days of culture. After 10 days of culture, cells were stained with anti-CD138 antibody, a marker of plasma cells, and CD138 expression was measured using BD LSRFortessa.
In all figures, the horizontal axis represents the expression level of CD138 and the vertical axis represents the number of cells.

TSLP = assay: Auricular tissue TSLP ELISA, atopic dermatitis mice; format: in vivo, mouse; details: day 7, topical application, control 317, vehicle 1533
Procedure: (§4) MC903 at 2 nM was applied to the right auricle of a 6-week-old male Balb/c (Japan SLC Inc.). Starting 8 h later, 5% norathyriol aqueous solution (1 mL of ethanol containing […] of norathyriol), betamethasone ointment, and delgocitinib ointment were applied to the auricle for 7 days. The measurement of auricular skin swelling was calculated by calipers. The day on which the first application of the compound was made was defined as day 0. Betamethasone and delgocitinib are currently in clinical use in atopic dermatitis and were used as control drugs in this example.
The mouse TSLP ELISA kit (R&D) was used for this measurement.

IgE antibody = assay: Serum IgE antibody ELISA, atopic dermatitis mice; format: in vivo, mouse; details: day 7, topical application, control 1214, vehicle (MC903) 2588
Procedure: as §4
Serum was collected from mice on day 7 in Example 1, and IgE antibody production was measured by enzyme-linked immunosorbent assay (ELISA). This assay was performed using a mouse IgE antibody ELISA kit (R&D).

IL-5 = assay: Auricular tissue IL-5 ELISA, atopic dermatitis mice; format: in vivo, mouse; details: day 7, topical application, control 15, vehicle 32
Procedure: as §4
The mouse IL-5 ELISA kit (R&D) was used for this measurement.

IL-4 = assay: Auricular tissue IL-4 ELISA, atopic dermatitis mice; format: in vivo, mouse; details: day 7, topical application, control 56, vehicle 152
Procedure: as §4
The mouse IL-4 ELISA kit (R&D) was used for this measurement.

T1 sequence (Q9WUL6 whole entry): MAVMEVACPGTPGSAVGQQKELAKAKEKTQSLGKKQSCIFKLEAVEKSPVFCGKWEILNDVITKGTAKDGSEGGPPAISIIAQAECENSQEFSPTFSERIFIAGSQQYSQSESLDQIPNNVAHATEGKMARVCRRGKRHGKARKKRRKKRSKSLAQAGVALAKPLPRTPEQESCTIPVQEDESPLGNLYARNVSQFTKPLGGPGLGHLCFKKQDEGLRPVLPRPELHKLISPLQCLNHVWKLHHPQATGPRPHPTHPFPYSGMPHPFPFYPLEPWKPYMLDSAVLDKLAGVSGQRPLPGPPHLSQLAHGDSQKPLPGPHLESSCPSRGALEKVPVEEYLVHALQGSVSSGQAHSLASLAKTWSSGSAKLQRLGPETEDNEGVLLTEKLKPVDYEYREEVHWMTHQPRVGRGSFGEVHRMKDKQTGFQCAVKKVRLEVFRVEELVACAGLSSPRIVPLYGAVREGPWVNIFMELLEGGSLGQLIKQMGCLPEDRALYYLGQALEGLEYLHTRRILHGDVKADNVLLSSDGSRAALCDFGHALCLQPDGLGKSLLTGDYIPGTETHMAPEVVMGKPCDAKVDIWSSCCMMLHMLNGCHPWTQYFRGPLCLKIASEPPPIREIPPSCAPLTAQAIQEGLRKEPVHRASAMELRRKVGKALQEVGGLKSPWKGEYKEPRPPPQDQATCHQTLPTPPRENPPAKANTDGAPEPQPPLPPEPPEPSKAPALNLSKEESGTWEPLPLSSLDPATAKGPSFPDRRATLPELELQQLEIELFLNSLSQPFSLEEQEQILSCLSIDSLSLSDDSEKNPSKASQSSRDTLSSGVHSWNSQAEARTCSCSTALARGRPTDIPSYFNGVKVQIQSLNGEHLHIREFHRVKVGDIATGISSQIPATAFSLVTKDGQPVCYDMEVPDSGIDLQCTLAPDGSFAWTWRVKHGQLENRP

## OC1c2ccccc2Oc2ccccc21 [xanthohydrol]
NIK
  phospho-NIK band (immunoblotting): fainter
  inhibition of NIK activity compared with mangiferin: more inhibition of NIK activity than mangiferin
[1]
  population IgM positive and IgD positive (mature B cells): 0%
  population IgM positive and IgD negative (immature B cells): 3.64%
  population IgM negative and IgD negative (pre-B cells): 96.3%
NF-κB p52
  nuclear NF-κB p52 band (immunoblotting): fainter
[2]
  CD138 expression: significantly decreased CD138 expression

## O=c1c2cc(O)c(O)cc2oc2cc(O)c([C@@H]3O[C@H](CO)[C@@H](O)[C@H](O)[C@H]3O)c(O)c12 [mangiferin]
NIK
  phospho-NIK band (immunoblotting): fainter
[1]
  population IgM positive and IgD positive (mature B cells): 0%
  population IgM positive and IgD negative (immature B cells): 3.24%
  population IgM negative and IgD negative (pre-B cells): 95.8%
NF-κB p52
  nuclear NF-κB p52 band (immunoblotting): fainter
[2]
  CD138 expression: significantly decreased CD138 expression

## O=c1c2ccc(O)c(O)c2oc2cc(O)cc(O)c12 [1,3,5,6-tetrahydroxyxanthone]
NIK
  phospho-NIK band (immunoblotting): fainter
  inhibition of NIK activity compared with mangiferin: more inhibition of NIK activity than mangiferin
[1]
  population IgM positive and IgD positive (mature B cells): 0%
  population IgM positive and IgD negative (immature B cells): 2.92%
  population IgM negative and IgD negative (pre-B cells): 96.5%
NF-κB p52
  nuclear NF-κB p52 band (immunoblotting): fainter
[2]
  CD138 expression: significantly decreased CD138 expression

## C[C@H]1C[C@H]2[C@@H]3CCC4=CC(=O)C=C[C@]4(C)[C@@]3(F)[C@@H](O)C[C@]2(C)[C@@]1(O)C(=O)CO [betamethasone]
TSLP
  TSLP secretion: 651 pg/mL
IgE antibody
  amount of IgE antibody: 1175 ng/mL
IL-5
  IL-5 secretion: 8 pg/mL
IL-4
  IL-4 secretion: 45 pg/mL

## COc1c(O)cc2oc3cc(O)c(CC=C(C)C)c(O)c3c(=O)c2c1CC=C(C)C [α-mangostin]
NIK
  phospho-NIK band (immunoblotting): fainter
  inhibition of NIK activity compared with mangiferin: more inhibition of NIK activity than mangiferin
[1]
  population IgM positive and IgD positive (mature B cells): 0.363%
  population IgM positive and IgD negative (immature B cells): 21.2%
  population IgM negative and IgD negative (pre-B cells): 78.1%
NF-κB p52
  nuclear NF-κB p52 band (immunoblotting): fainter
[2]
  CD138 expression: significantly decreased CD138 expression

## CC(C)=CCc1c(O)cc2oc3cc(O)c(O)c(CC=C(C)C)c3c(=O)c2c1O [γ-mangostin]
NIK
  phospho-NIK band (immunoblotting): fainter
  inhibition of NIK activity compared with mangiferin: more inhibition of NIK activity than mangiferin
[1]
  population IgM positive and IgD positive (mature B cells): 0.561%
  population IgM positive and IgD negative (immature B cells): 19.7%
  population IgM negative and IgD negative (pre-B cells): 79.7%
NF-κB p52
  nuclear NF-κB p52 band (immunoblotting): fainter
[2]
  CD138 expression: significantly decreased CD138 expression

## C[C@H]1CN(C(=O)CC#N)[C@]12CCN(c1ncnc3[nH]ccc13)C2 [delgocitinib]
TSLP
  TSLP secretion: 971 pg/mL
IgE antibody
  amount of IgE antibody: 1812 ng/mL
IL-5
  IL-5 secretion: 33 pg/mL
IL-4
  IL-4 secretion: 159 pg/mL
